Series [1] is described as follows: Antiproliferative activity against NHEK cells incubated for 24 hrs by [3H]thymidine incorporation assay. The format is functional, cell-based. As to conditions: Homo sapiens. A general note: Dividing cells build labelled thymidine or BrdU into new DNA.
Another series deals with HaCaT. Kind of series: Inhibition of colony formation of human HaCaT cells. The format is functional, cell-based.
The target in series [2] is T1, CYP11A1 (cholesterol side-chain cleavage enzyme, mitochondrial) (Bos taurus, UniProt P00189).
T1 sequence (P00189 whole entry): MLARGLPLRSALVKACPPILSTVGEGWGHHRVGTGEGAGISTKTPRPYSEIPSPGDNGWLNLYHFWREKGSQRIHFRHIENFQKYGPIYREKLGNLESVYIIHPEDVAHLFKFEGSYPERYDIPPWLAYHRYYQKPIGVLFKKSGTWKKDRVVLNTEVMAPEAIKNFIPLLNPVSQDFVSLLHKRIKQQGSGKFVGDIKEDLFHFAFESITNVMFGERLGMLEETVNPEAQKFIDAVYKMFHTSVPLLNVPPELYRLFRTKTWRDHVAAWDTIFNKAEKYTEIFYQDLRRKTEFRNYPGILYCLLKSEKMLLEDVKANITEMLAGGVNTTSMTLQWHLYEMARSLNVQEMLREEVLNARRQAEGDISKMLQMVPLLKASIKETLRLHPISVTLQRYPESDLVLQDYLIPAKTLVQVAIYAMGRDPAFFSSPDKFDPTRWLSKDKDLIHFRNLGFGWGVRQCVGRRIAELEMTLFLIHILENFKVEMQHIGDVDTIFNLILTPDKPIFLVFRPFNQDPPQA
Kind of series: Drug metabolism assessed as bovine CYP11A1-mediated compound metabolism after 2 mins incubation using compound loaded phospholipid vesicle by reverse phase HPLC. The format is ADME. As to conditions: cattle, bovine CYP11A1 with compound-loaded phospholipid vesicles; read-out: Drug metabolism.

Series [3] is described as follows: Antiproliferative activity against NHEK cells assessed as cell proliferation incubated for 24 hrs by [3H]thymidine incorporation assay relative to untreated control.
The subject of another series is HEK293. Kind of series: Stimulation of cell proliferation of NHEK cells at 0.1 nM incubated for 24 hrs by [3H]thymidine incorporation assay. Type of series: functional, cell-based. As to conditions: Homo sapiens.

The source made the active and inactive calls. The calls are words filed in the database; no cut-off is given here.

What is called EC50 is the concentration that produces a half-maximal response. A low value points to a more potent agent.

Consider `C=C1CC[C@H](O)C/C1=C/C=C1\CCC[C@@]2(C)[C@H]1CC[C@@H]2[C@@](C)(O)CCCC(C)C`, for which a half-maximal effect in series [1] (EC50) was put at 0.728 nM. The inhibition result in the series on HaCaT is “Active”. In addition, the metabolised at 2 min in series [2] came out at 13%. The “level, % of control” value in series [3] is recorded as less than 50%.

In series [1], `C=C1CC[C@H](O)C/C1=C/C=C1\CCC[C@@]2(C)[C@H]1CC[C@@H]2[C@](C)(O)CCCC(C)C` came in with a 50% effective concentration (EC50) of 4.09 nM. For the same compound, the outcome in the series with HEK293 was Active. Moreover, in series [2], the metabolised at 2 min worked out at 58%. In addition, the “level, % of control” value in series [3] is less than 50%.

For the compound `C=C1CC[C@H](O)C/C1=C/C=C1\CCC[C@]2(C)[C@@H]([C@H](C)CCCC(C)(C)O)CC[C@@H]12`, the inhibition entry with HaCaT was “inactive”.

As for `C=C1/C(=C\C=C2/CCC[C@]3(C)[C@@H]([C@H](C)CCCC(C)(C)O)CC[C@@H]23)C[C@@H](O)C[C@@H]1O`, in the series on HaCaT, the inhibition result was “Active”.

Values taken from ChEMBL document CHEMBL2034926, “Design, synthesis, and biological action of 20R-hydroxyvitamin D3” (J Med Chem, 2012).
